Legend:
[1] = target: MAO; experiment: MAO inhibitory activity (Holts method, rat liver mitochondrial enzyme); format: biochemical
Description: (§1) Male SD rats were sacrificed by decapitation, operated on ice, their livers were removed, and the liver surface was washed with precooled phosphate buffer. The liver was cut into pieces, and after washing (using PBS), 20 mL of 0.3 M sucrose buffer was added for homogenization. After fully homogenized, it was balanced by a tray balance. Low–temperature differential centrifugation was performed, and the obtained SD rat liver mitochondrial concentrate was the experimental monoamine oxidase stock solution, and was stored in a −80 °C refrigerator.
(§2) Added 25 µL of enzyme dilution solution and 25 µL of test derivatives (control group plus rasagiline, blank group plus 10% DMSO) to 96–well plate, incubated at 37 °C for 1 h, then 120 µL of substrate was added, 80 µL of chromogenic solution was added, incubated at 37 °C for 30 min, and its absorbance measured at 490 nm. In addition, in order to exclude the influence of protein, a protein control group was established, only the enzyme dilution was added, and the rest were replaced with PBS, and the absorbance value was detected at a wavelength of 490 nm. The inhibition rate of each concentration was substituted into the calculation software GraphPad Prism 8 to calculate the IC50 value.

[2] = target: T1, MAO–A (Rattus norvegicus, UniProt P21396); experiment: MAO–A inhibitory activity (enzyme pre-incubated with pargyline); format: biochemical
T1 construct: the obtained SD rat liver mitochondrial concentrate was the experimental monoamine oxidase stock solution; from tissue; host or cells: male SD rat liver mitochondria
T1 sequence (P21396 1-526): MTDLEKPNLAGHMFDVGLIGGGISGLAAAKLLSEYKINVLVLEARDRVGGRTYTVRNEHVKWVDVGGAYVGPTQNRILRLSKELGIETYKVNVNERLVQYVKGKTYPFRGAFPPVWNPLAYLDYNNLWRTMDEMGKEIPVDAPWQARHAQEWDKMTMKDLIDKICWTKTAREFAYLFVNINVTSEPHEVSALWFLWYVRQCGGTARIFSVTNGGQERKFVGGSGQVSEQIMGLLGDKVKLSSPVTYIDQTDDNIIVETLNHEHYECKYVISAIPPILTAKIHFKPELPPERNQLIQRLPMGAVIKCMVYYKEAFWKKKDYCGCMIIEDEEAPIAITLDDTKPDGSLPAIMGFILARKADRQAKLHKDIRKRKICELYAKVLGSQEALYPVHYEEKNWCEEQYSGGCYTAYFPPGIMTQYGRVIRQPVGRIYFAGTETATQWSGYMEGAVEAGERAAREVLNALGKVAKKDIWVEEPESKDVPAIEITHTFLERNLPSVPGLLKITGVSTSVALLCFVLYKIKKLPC
Description: as §1, §2
(§3) The inhibition rate of each concentration was substituted into the calculation software GraphPad Prism 8 to calculate the IC50 value.

[3] = target: T2, MAO–B (Rattus norvegicus, UniProt P19643); experiment: MAO–B inhibitory activity (enzyme pre-incubated with chlorgiline); format: biochemical
T2 construct: the obtained SD rat liver mitochondrial concentrate was the experimental monoamine oxidase stock solution; from tissue; host or cells: male SD rat liver mitochondria
T2 sequence (P19643 1-520): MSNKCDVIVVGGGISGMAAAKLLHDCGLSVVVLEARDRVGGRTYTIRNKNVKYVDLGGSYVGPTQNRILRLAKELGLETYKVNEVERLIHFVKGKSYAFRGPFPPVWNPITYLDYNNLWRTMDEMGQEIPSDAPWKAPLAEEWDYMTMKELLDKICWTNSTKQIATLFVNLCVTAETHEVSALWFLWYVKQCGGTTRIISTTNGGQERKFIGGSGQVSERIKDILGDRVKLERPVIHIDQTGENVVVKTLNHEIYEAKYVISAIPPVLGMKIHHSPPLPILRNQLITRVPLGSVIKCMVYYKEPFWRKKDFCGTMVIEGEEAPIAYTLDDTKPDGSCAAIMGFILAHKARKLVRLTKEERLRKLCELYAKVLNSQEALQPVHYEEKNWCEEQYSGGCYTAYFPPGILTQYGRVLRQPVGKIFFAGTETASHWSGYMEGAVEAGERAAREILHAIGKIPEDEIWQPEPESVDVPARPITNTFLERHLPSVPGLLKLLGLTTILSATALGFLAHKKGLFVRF
Description: as §1, §2, §3

[4] = target: AChE (Homo sapiens, UniProt P22303); experiment: biochemical; format: biochemical
Description: (§4) Each concentration was tested three times in parallel, and 96 empty plates were taken, and 20 µL of the test sample or positive drug (10% DMSO was added to the blank control), 40 µL of AChE or BuChE (0.2 U/mL) and 100 µL of DTNB (0.001 mol/L) were added in turn, mixed well and incubated in a constant temperature water bath at 37 °C for 15 min.

[5] = target: BuChE (Homo sapiens, UniProt P06276); experiment: biochemical; format: biochemical
Description: as §4

[6] = system: ICR male mice; experiment: Forced swimming test (FST); format: in vivo; conditions: i.p., 30 mg/kg; for Duration of Immobility: 30 min after administration, mean ± SEM (n = 8); for DID (%) percentage decrease in immobility duration: vs control
Description: Pharmacological experiments of antidepressant activity used FST in mice, fluoxetine hydrochloride was used as a positive control, and the vehicle solvent PFG–400 was used as a blank control. The experiment used ICR male mice (20 ± 2 g). Six benzothiazole–quinoline derivatives were dissolved in polyethylene glycol–400, and 30 min after administration (i.p., 30 mg/kg), the mice were each placed in a glass cylinder, recording the time of immobility. Duration of immobility outcomes is expressed as mean ± SEM. The t-test was used to make comparisons between groups.

[7] = Cytotoxicity, MTT method; format: cell-based; conditions: mouse, L929 cells, 0–100 μM, read-out: cell viability (MTT)
Description: L929 (Shanghai Cell Bank, Chinese Academy of Sciences) cells were cultured in 10% fetal bovine serum: penicillin–streptomycin solution: MEM mixed medium with serum–free medium (10:1:90), and subcultured in a 5% carbon dioxide cell incubator at 37 °C, and the medium changed every other day.
In this experiment, L929 cells in the logarithmic growth phase were selected, and the cell density was adjusted to 2 × 10^4 cells per well. The cells were seeded in 96–well plates, and the 96–well plates seeded with cells were cultured in a 37 °C 5% carbon dioxide cell incubator. After 24 h, different concentrations of the test compound medium (6.5, 12.5, 25, 50, 100 μM) were added, and the blank group was added with drug–free medium, shaken gently, and placed at 37 °C 5%. The cells were cultured in a carbon dioxide cell incubator for 24 h, and each concentration was replicated 6 times. After 24 h, 20 μL of […] MTT solution (prepared in PBS with pH = 7.6) was added in the dark, and cultured in the cell incubator for another 4 h. After 4 h, the 96–well plate was taken out and the original medium was discarded. Added 160 μL DMSO, put it on a shaker and mixed well for about 10 min, used a microplate reader to measure its absorbance at 490 nm, recorded the results and analyzed.

BuChE, sequence (P06276 29-602): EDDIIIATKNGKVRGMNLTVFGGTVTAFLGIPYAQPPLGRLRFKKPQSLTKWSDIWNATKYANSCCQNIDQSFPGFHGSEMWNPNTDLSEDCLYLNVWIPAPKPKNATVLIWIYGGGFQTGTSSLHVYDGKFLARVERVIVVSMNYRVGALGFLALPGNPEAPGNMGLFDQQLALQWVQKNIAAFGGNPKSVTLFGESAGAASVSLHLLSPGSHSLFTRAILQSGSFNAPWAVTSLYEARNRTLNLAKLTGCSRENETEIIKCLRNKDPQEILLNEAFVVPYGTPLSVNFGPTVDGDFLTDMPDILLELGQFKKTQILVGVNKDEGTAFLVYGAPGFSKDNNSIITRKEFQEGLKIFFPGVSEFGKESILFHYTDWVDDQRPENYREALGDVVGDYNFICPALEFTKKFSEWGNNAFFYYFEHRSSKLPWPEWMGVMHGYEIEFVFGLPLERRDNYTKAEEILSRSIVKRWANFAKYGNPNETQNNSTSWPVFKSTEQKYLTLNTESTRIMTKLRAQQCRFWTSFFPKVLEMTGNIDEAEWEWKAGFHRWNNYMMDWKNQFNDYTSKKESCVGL
AChE, sequence (P22303 32-614): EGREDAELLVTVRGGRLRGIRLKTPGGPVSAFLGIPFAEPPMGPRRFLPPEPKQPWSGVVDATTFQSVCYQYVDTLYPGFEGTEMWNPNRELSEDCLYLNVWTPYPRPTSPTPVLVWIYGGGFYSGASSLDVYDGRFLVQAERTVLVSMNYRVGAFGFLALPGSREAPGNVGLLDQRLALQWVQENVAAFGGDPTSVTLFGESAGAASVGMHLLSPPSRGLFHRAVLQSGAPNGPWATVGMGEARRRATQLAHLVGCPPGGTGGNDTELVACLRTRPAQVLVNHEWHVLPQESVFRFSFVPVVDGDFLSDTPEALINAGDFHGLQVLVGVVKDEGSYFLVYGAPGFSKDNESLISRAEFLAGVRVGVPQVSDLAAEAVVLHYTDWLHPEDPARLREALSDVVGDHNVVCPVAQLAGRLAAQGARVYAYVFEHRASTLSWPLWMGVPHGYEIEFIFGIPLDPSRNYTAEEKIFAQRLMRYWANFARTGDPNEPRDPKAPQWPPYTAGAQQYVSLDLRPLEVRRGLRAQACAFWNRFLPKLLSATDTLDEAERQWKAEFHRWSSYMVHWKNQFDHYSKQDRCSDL

| Structure (SMILES) | IC50 [1] [µM] | Inhibition Rate of MAO (%) [1] [%] | Inhibition Rate (%) MAO–A [2] [%] | IC50 [3] [µM] | Inhibition Rate (%) MAO–B [3] [%] | IC50 [4] [µM] | Inhibition Rate (%) AChE [4] [%] | IC50 [5] [µM] | Inhibition Rate (%) BuChE [5] [%] | Duration of Immobility [6] [s] | DID (%) percentage decrease in immobility duration [6] [%] | viability at 24 h [7] [%] |
| --- | --- | --- | --- | --- | --- | --- | --- | --- | --- | --- | --- | --- |
| O=C(CN1CCc2ccccc2[C@H]1c1ccccc1)Nc1nc2ccc(Cl)cc2s1 [Compound 4c, (R)–N–(6–chlorobenzo[d]thiazol–2–yl)–2–(1–phenyl–3,4–dihydroisoquinolin–2(1H)–yl)acetamide] | 45.9 ± 2.66 | 21.59 | 12.03 | 9.13 ± 4.17 | 48.45 | > 150 | 1.10 | > 150 | 68.80 | 77.0 ± 18.3 | 56.84 | > 90 |
| O=C(CN1CCc2ccccc2[C@H]1c1ccccc1)Nc1nc2c(Br)cccc2s1 [Compound 4d, (R)–N–(4–bromobenzo[d]thiazol–2–yl)–2–(1–phenyl–3,4–dihydroisoquinolin–2(1H)–yl)acetamide] | 64.8 ± 4.2 | 43.37 | 18.05 | 3.26 ± 2.78 | 46.00 | > 150 | 0.55 | 14.6 ± 5.81 | 77.76 | 62.3 ± 14.0 | 65.06 | > 90 |
| O=C(CN1CCc2ccccc2[C@H]1c1ccccc1)Nc1nc2ccc(Br)cc2s1 [Compound 4f, (R)–N–(6–bromobenzo[d]thiazol–2–yl)–2–(1–phenyl–3,4–dihydroisoquinolin–2(1H)–yl)acetamide] | 41.8 ± 2.94 | 24.15 | 15.04 | 47.6 ± 1.82 | 46.49 | > 150 | 1.10 | > 150 | 32.32 | 71.7 ± 4.9 | 59.83 | > 90 |
| Cc1cccc2sc(NC(=O)CN3CCc4ccccc4[C@H]3c3ccccc3)nc12 [Compound 4g, (R)–N–(4–methylbenzo[d]thiazol–2–yl)–2–(1–phenyl–3,4–dihydroisoquinolin–2(1H)–yl)acetamide] | 14.8 ± 5.45 | 57.11 | 9.03 | 12.1 ± 3.47 | 51.39 | > 150 | 1.10 | 30.3 ± 4.59 | 72.64 | 69.0 ± 15.7 | 61.32 | > 90 |
| Cc1ccc2nc(NC(=O)CN3CCc4ccccc4[C@H]3c3ccccc3)sc2c1 [Compound 4i, (R)–N–(6–methylbenzo[d]thiazol–2–yl)–2–(1–phenyl–3,4–dihydroisoquinolin–2(1H)–yl)acetamide] | 18.5 ± 1.69 | 26.46 | 2.51 | 16.5 ± 3.59 | 61.17 | > 150 | 2.21 | 19.2 ± 2.72 | 47.68 | 83.8 ± 13.6 | 53.05 | > 90 |
